Where two headings read alike, the source gives them in different places.
Tests used:
[1] = in vivo, iv; cited from earlier work
Excerpt: (§1) Platelet-derived growth factor BB (PDGF-BB), one of the first growth factors released into the wound, plays a crucial role in the wound healing process. It is responsible for the formation of granulation tissue, production of extracellular matrix (ECM), takes part in the recruitment of mesenchymal stromal cells (MSCs), and stimulates the proliferation of fibroblasts ([White et al., 2021]). In 1997, the FDA approved human recombinant PDGF-BB in sodium carboxy-methylcellulose (NaCMC) hydrogel (Regranex®) for the treatment of DFUs ([Reyes-Martínez et al., 2019]). However, because of the high cos ...

mice = details: applied topically in 18% P407 hydrogel, mice model; ref Deptuła et al., 2020; cited from earlier work
Excerpt: as §1

[2] = tested on: lymphocytes and basophils; details: cited from earlier work
Excerpt: as §1

[3] = tested on: human skin cells, especially keratinocytes; details: ref Deptuła et al., 2020; cited from earlier work
Excerpt: as §1

skin cells = details: cited from earlier work
Excerpt: Platelet-derived growth factor BB (PDGF-BB), one of the first growth factors released into the wound, plays a crucial role in the wound healing process. It is responsible for the formation of granulation tissue, production of extracellular matrix (ECM), takes part in the recruitment of mesenchymal stromal cells (MSCs), and stimulates the proliferation of fibroblasts ([White et al., 2021]). In 1997, the FDA approved human recombinant PDGF-BB in sodium carboxy-methylcellulose (NaCMC) hydrogel (Regranex®) for the treatment of DFUs ([Reyes-Martínez et al., 2019]). However, because of the high cos ... || During the development of new biomaterials, it is crucial to analyze not only their physicochemical properties and activity but also their biocompatibility and potential risk to human cells and tissues ([Schmalz and […], 2017]). That is why we decided to evaluate the cytotoxicity of RADA-PDGF2 and its effect on immune cells. Based on our experience and literature data, we know that peptides can be cytotoxic to human cells ([Greco et al., 2020]). […] However, RADA- ...

[4] = tested on: human neutrophil elastase; experiment: human neutrophil elastase enzyme (EC No. 3.4.21.37, Sigma Aldrich, USA) in 25 mM Tris HCl buffer, pH 7.5; details: 37°C, up to 30 min
[5] = tested on: dermal fibroblast, 46BR.1N fibroblast, and HaCaT keratinocytes; format: cell-based, human
Protocol: Cell viability of dermal fibroblast, 46BR.1N fibroblast, and HaCaT keratinocytes was analyzed after 4 days of cell culture on RADA-PDGF2 hydrogel. RADA-PDGF2 was dissolved in water at a concentration of 1% w/v and placed in the inserts (0.4 µm) located in a 24-well plate. The whole was incubated for at least 1 hour at 37°C to allow gelation. Then, twice the volume of DMEM HG medium was added to the gel and left overnight in the incubator. The cells were trypsinized, centrifuge and then seeded on a gel at 50,000 per insert in DMEM HG medium with 2% FBS and 1% P/S. The medium was changed to DMEM HG with 2% FBS and 1% P/S after 2 days of incubation. After 4 days of incubation to assess viability, cells were stained with Calcein-AM (c = 8 µM) and propidium iodide (2 μg/mL) for 30 min and then analyzed by confocal microscopy with the use of Nikon Eclipse Ti-e Confocal Microscope.

[6] = tested on: human peripheral blood mononuclear cells (PBMCs); experiment: Immunological analysis: activation of immune cells by flow cytometry; format: cell-based
Protocol: The analysis of the effect on immune cells in vitro was performed with human peripheral blood mononuclear cells (PBMCs) isolated from “buffy coats” using a Ficoll density gradient (Histopaque, Sigma-Aldrich Co.). The procedure was approved by the Independent Bioethics Commission for Research of the Medical University of Gdańsk (NKBBN/387/2014). 100 ul of 1% RADA-PDGF2 was placed in a 24-well plate. Then, culture inserts with a pore diameter of 0.4 μm were placed in the wells, and cells were seeded into them in the amount of 0.5 million cells/0.5 mL RPMI 1640 (P/S, 10% FBS)/well. This was then supplemented with medium alone to a final volume of 1 mL/well. Cells were incubated in standard conditions for 24 h. The negative control was unstimulated cells, grown in the insert, in a well without gels. RADA16-I constituted an additional control. After the incubation, cells were harvested, washed in PBS, counted, and prepared for cytometric analysis. 100,000 cells/100 µL were stained with fluorochrome-conjugated monoclonal antibodies (anti-CD3, anti-CD4, anti-CD8, anti-CD16, anti-CD56, anti-CD25, anti-CD69, anti-CD71, anti-HLA-DR, anti-CD11c, anti-CD80, and anti-CD83). Following 30 min of incubation at room temperature (RT) in the dark, the cells were analyzed using a flow cytometer (LSRFortessa, BD).

[7] = format: physicochemical
Protocol: Blood samples provided by healthy volunteers were processed with lithium/heparin tubes to eliminate clots by centrifugation. Plasma aliquots were mixed with RADA-PDGF2 peptide for 24 h at 37°C, using a plasma to peptide volume ratio of (4:1% v/v), to obtain final concentration 2.69 µM of RADA-PDGF2 peptide.). Samples were collected at six time points (0, 1, 2, 3, 6, and 24 h) to assess water and plasma stability. The collected samples were then prepared and analyzed according to the protocol described earlier ([Dzierżyńska et al., 2023]).

[8] = previous stability studies; ref Dzierżyńska et al., 2023; cited from earlier work

## PDGF-BB: Platelet-derived growth factor BB
[1]
  half-life: a few minutes

## RLIDRTNANFL [PDGF2, peptide … derived from PDGF-BB]
mice
  effect on wound healing: accelerates wound healing
[2]
  immunogenicity in vitro: negligible lymphocyte and basophil activation
[3]
  pro-proliferative properties: strong pro-proliferative properties
Skin cells
  cytotoxicity: minimal cytotoxicity

## Ac-(RADA)4GGGAAPVGGGRLIDRTNANFL-NH2
[4]
  cleaved bond: V23-G24, major

## CC[C@H](C)[C@H](NC(=O)[C@H](CC(C)C)NC(=O)[C@H](CCCNC(=N)N)NC(=O)CNC(=O)CNC(=O)CNC(=O)[C@@H](NC(=O)[C@@H]1CCCN1C(=O)[C@H](C)NC(=O)[C@H](C)NC(=O)CNC(=O)CNC(=O)CNC(=O)[C@H](C)NC(=O)[C@H](CC(=O)O)NC(=O)[C@H](C)NC(=O)[C@H](CCCNC(=N)N)NC(=O)[C@H](C)NC(=O)[C@H](CC(=O)O)NC(=O)[C@H](C)NC(=O)[C@H](CCCNC(=N)N)NC(=O)[C@H](C)NC(=O)[C@H](CC(=O)O)NC(=O)[C@H](C)NC(=O)[C@H](CCCNC(=N)N)NC(=O)[C@H](C)NC(=O)[C@H](CC(=O)O)NC(=O)[C@H](C)NC(=O)[C@H](CCCNC(=N)N)NC(C)=O)C(C)C)C(=O)N[C@@H](CC(=O)O)C(=O)N[C@@H](CCCNC(=N)N)C(=O)N[C@H](C(=O)N[C@@H](CC(N)=O)C(=O)N[C@@H](C)C(=O)N[C@@H](CC(N)=O)C(=O)N[C@@H](Cc1ccccc1)C(=O)N[C@@H](CC(C)C)C(N)=O)[C@@H](C)O [RADA-PDGF2]
[5]
  skin cell viability on hydrogel: remained viable
[6]
  CD11c+CD83+ active DCs population compared to untreated control: statistically significant increase
  NK cells: expression of CD25: slight increase
  NK cells: expression of CD71: reduction
  NK cells: statistical significance of change in activation markers: no statistical significance was noted
  Th cells: expression of activation markers versus unstimulated cells: any statistically significant differences between unstimulated cells and cells stimulated with RADA-PDGF2 were not observed
  cytotoxic lymphocytes (CTL): expression of CD69 marker: increased expression
  overall immunological assessment: safe in an immunological context
[7]
  time over which the peptide exhibited chemical stability in aqueous solution: 24 h

## CC(=O)N[C@@H](CCCNC(=N)N)C(=O)N[C@@H](C)C(=O)N[C@@H](CC(=O)O)C(=O)N[C@@H](C)C(=O)N[C@@H](CCCNC(=N)N)C(=O)N[C@@H](C)C(=O)N[C@@H](CC(=O)O)C(=O)N[C@@H](C)C(=O)N[C@@H](CCCNC(=N)N)C(=O)N[C@@H](C)C(=O)N[C@@H](CC(=O)O)C(=O)N[C@@H](C)C(=O)N[C@@H](CCCNC(=N)N)C(=O)N[C@@H](C)C(=O)N[C@@H](CC(=O)O)C(=O)N[C@@H](C)C(N)=O [RADA16-I, reference compound]
[6]; PBMCs, 24 h, due to the low values of the changes
  overall immunological assessment: safe in an immunological context
[8]
  presence of peptide in plasma: did not show prolonged presence of peptide in plasma
